Consider three molecules from article PMC4629899, “Structural and Enzymatic Characterization of a Nucleoside Diphosphate Sugar Hydrolase from Bdellovibrio bacteriovorus” (PLoS ONE, 2015).

For data set [1], the target named is T1, Bd-NDPSase (Bd3179) (Bdellovibrio bacteriovorus, UniProt Q6MIH8, E140Q).
T1 construct: gene nudF; gene cloned from HD100 chromosomal DNA into pET24a, expressed in E. coli BL21 (DE3); conventional purification, no tag mentioned; homodimer, residues numbered to 182
The data set can be described thus: X-ray crystal structure, […] A. The data set is classed as binding. The conditions noted are these: from crystals with 5 mM UDP-glucose (co-crystallization per methods, soak per results); active site, shifted toward phosphate position.

The target in data set [2] is T1, Bd-NDPSase (Bd3179). Briefly: X-ray crystal structure, […] A (soak). The data set is classed as binding. The conditions noted are these: crystals soaked in 5 mM ADPR for 2 days; catalytically inactive mutant; active site, no metal added.
Substrate in data set [3]: Nc1nc2c(ncn2[C@@H]2O[C@H](COP(=O)(O)OP(=O)(O)O[C@H]3O[C@H](CO)[C@@H](O)[C@H](O)[C@@H]3O)[C@@H](O)[C@H]2O)c(=O)[nH]1
Briefly: phosphate release assay (Ames, coupled to calf intestinal phosphatase). The data set is classed as biochemical, Bdellovibrio bacteriovorus. The conditions noted are these: 5 mM MgCl2, 50 mM Tris-HCl pH 8.6, 1 mM EDTA. An excerpt:
phosphate release assay (Ames, coupled to calf intestinal phosphatase) on Bd-[…]

T1 sequence (Q6MIH8 entry or part of it E140Q): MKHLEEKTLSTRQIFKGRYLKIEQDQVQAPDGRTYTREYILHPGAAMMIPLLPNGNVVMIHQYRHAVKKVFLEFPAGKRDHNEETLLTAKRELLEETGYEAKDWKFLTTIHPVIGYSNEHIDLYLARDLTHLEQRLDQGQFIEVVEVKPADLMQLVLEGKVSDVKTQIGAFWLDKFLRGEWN

Turning to `OC[C@H]1OC(O)[C@H](O)[C@@H](O)[C@@H]1O` (stereo partly shown) [glucose], at Bd-NDPSase (Bd3179) [1], the “X-ray crystal structure, 1.80 A” value was “E140Q Bd-NDPSase in complex with glucose (PDB ID 5C8L)”. For the molecule `Nc1ncnc2c1ncn2[C@@H]1O[C@H](COP(=O)(O)OP(=O)(O)OC[C@H]2OC(O)[C@H](O)[C@@H]2O)[C@@H](O)[C@H]1O` (stereo partly shown) [ADPR, ADP-ribose], the “X-ray crystal structure, 2.06 A (soak)” value on Bd-NDPSase (Bd3179) [2] is “E140Q Bd-NDPSase in complex with ADP-ribose (PDB ID 5C7T)”.

B1: Bd-NDPSase (Bd3179) (Bdellovibrio bacteriovorus HD100) (protein)
chain: MKHLEEKTLSTRQIFKGRYLKIEQDQVQAPDGRTYTREYILHPGAAMMIPLLPNGNVVMIHQYRHAVKKVFLEFPAGKRDHNEETLLTAKRELLEETGYEAKDWKFLTTIHPVIGYSNEHIDLYLARDLTHLEQRLDQGEFIEVVEVKPADLMQLVLEGKVSDVKTQIGAFWLDKFLRGEWN
notes: gene cloned from HD100 chromosomal DNA into pET24a, expressed in E. coli BL21 (DE3); conventional purification, no tag mentioned; homodimer, residues numbered to 182
In general, Km refers to the concentration of substrate that gives half-maximal velocity. By kcat is commonly meant the number of substrate molecules converted per active site and unit of time at saturation. Take B1: in data set [3], the Michaelis-Menten constant (Km) was 0.3 mM and the turnover number (kcat) was determined as 5200 s⁻¹.
